In one data set the target is CDK2 (Homo sapiens, UniProt P24941). As to the kind of experiment: CDK2 kinase inhibition assay. In kind it is biochemical.
A further data set concerns the target T1, Nek2 (Homo sapiens, UniProt P51955).
T1 construct: purchased Invitrogen
T1 sequence (P51955 1-445): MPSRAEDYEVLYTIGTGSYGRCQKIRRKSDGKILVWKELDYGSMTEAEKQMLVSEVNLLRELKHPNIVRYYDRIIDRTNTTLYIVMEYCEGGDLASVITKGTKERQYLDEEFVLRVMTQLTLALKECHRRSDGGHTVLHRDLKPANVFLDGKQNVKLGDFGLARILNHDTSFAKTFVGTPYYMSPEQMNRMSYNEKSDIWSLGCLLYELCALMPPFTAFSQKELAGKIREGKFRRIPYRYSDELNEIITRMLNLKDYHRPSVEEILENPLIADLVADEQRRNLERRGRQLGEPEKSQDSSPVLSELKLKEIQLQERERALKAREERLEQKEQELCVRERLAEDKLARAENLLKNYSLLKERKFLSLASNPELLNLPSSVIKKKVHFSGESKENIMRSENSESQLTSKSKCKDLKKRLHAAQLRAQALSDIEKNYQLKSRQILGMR
As to the kind of experiment: Nek2 Caliper kinase inhibition assay. It counts as biochemical. To be noted: 30 μM ATP; for IC50: Caliper assay; for inhibition at 50 µM: @ 50 μM compound.

The record followed here is publication PMC5386672, “Structure-guided design of purine-based probes for selective Nek2 inhibition” (Oncotarget, 2016).

For the compound `O=C(Cc1cccc(Nc2nc(OCC3CCCCC3)c3nc[nH]c3n2)c1)NCCCO` [Compound 40], the melting point (in general, the temperature, or range, at which the solid turns liquid) lay in the range of 132 to 133 °C. The midpoint of inhibition at CDK2 (12.5 μM ATP), the IC50, lay at 800 nM. In addition, on Nek2, the IC50 (in general, the concentration needed to halve the response being measured) was found to be 1300 nM.

As for `O=C(NCCN1CCCCC1)Nc1ccc(Nc2ncc3nc[nH]c3n2)cc1` [Compound 65, 1-(4-((9H-purin-2-yl)amino)phenyl)-3-(2-(piperidin-1-yl)ethyl)urea], the melting point was 96 to 98 °C. In addition, on CDK2 (@ 100 μM compound, 12.5 μM ATP), at 100 µM the inhibition was 30%. This compound showed an IC50 on Nek2 of 4500 nM.

`CN(C)CCCNC(=O)Nc1ccc(Nc2nc(OCC3CCCCC3)c3nc[nH]c3n2)cc1` [Compound 18, 1-(4-(6-(Cyclohexylmethoxy)-9H-purin-2-ylamino)phenyl)-3-(3-(dimethylamino)propyl)urea]: the melting point is 110 to 112 °C. For the same compound, the IC50 at CDK2 (12.5 μM ATP) was found to be 720 nM. Moreover, the IC50 against Nek2 worked out at 1200 nM.

Regarding `CC(C)CCNC(=O)Cc1cccc(Nc2nc(OCC3CCCCC3)c3nc[nH]c3n2)c1` [Compound 44, 2-[3-(6-Cyclohexylmethoxy-9H-purin-2-ylamino)phenyl]-N-(3-methylbutyl)acetamide], on CDK2 (12.5 μM ATP), the IC50 came out at 3700 nM. In addition, at Nek2, the inhibition (commonly the drop in the measured response relative to a control, in per cent) at 50 µM is 29%.

`O=C(NCCN1CCOCC1)Nc1ccc(Nc2nc(OCC3CCCCC3)c3nc[nH]c3n2)cc1` [Compound 16, 1-(4-(6-(Cyclohexylmethoxy)-9H-purin-2-ylamino)phenyl)-3-(2-morpholinoethyl)urea] yielded a melting point of 161 to 163 °C. The IC50 on CDK2 (12.5 μM ATP) came to 1100 nM. On Nek2, it took 2200 nM to reach half-maximal inhibition (IC50).

Take `NC(=O)Nc1cccc(Nc2nc(OCC3CCCCC3)c3nc[nH]c3n2)c1` [Compound 31, 1-(3-(6-(Cyclohexylmethoxy)-9H-purin-2-ylamino)phenyl) urea]: the melting point was 193 to 194 °C. Moreover, the IC50 on CDK2 (12.5 μM ATP) worked out at 380 nM. In addition, the “selectivity for CDK2 over Nek2” value on CDK2 (from IC50 values) is recorded as 10 fold. The compound further gave an IC50 against Nek2 of 3600 nM.

Turning to `CN1CCN(CCCNC(=O)Cc2cccc(Nc3nc(OCC4CCCCC4)c4nc[nH]c4n3)c2)CC1` [Compound 46, 2-[3-(6-Cyclohexylmethoxy-9H-purin-2-ylamino)phenyl]-N-[3-(4-methylpiperazin-1-yl)propyl]acetamide], the melting point was 157 to 158 °C. Besides, on CDK2 (12.5 μM ATP), the IC50 was found to be 2400 nM. Further, half-maximal inhibition at Nek2 (IC50) was put at 3600 nM.

`COc1ccc(CNS(=O)(=O)Cc2cccc(Nc3nc(OCC4CCCCC4)c4nc[nH]c4n3)c2)cc1` [Compound 52, 1-[3-(6-Cyclohexylmethoxy-9H-purin-2-ylamino)phenyl]-N-(4-methoxybenzyl)methanesulfonamide] showed a melting point of 118 to 119 °C. This compound yielded an IC50 at CDK2 (12.5 μM ATP) of 3000 nM. In addition, the inhibition at 100 µM against Nek2 (@ 100 μM compound) stood at 38%.

For `CCOc1nc(Nc2cccc(CC(=O)NCCCN(C)C)c2)nc2[nH]cnc12` [Compound 7], the figures for the IC50 against CDK2 (12.5 μM ATP) and against Nek2 were 5600 nM and 890 nM, respectively.

For `CN(C)S(=O)(=O)Cc1cccc(Nc2nc(OCC3CCCCC3)c3nc[nH]c3n2)c1` [Compound 48, [3-(6-Cyclohexylmethoxy-9H-purin-2-ylamino)-phenyl]-N,N-dimethylmethanesulfonamide], the IC50 against CDK2 (12.5 μM ATP) was found to be 770 nM; against Nek2, 830 nM.

Take `O=C(O)c1cccc(Nc2nc(OCC3CCCCC3)c3nc[nH]c3n2)c1` [Compound 23, 3-(6-Cyclohexylmethoxy-9H-purin-2-ylamino)benzoic acid]: the melting point is 182 to 184 °C (dec.). For the same compound, at CDK2 (12.5 μM ATP), the IC50 came out at 990 nM. The compound also registered an IC50 on Nek2 of 4300 nM.

As to `c1ccc(Nc2nc(OCC3CCCCC3)c3nc[nH]c3n2)cc1` [2-aminophenyl-6-(cyclohexylmethoxy)-9H-purine], the IC50 against Nek2 stood at 22000 nM.

`CCOc1nc(Nc2cccc(CC(=O)NCCCn3ccnc3)c2)nc2[nH]cnc12` [Compound 62, 2-[3-(6-Ethoxy-9H-purin-2-ylamino)-phenyl]-N-(3-imidazol-1-ylpropyl)acetamide] had a melting point of 176 to 177 °C. In addition, it took 5200 nM to reach half-maximal inhibition on CDK2 (12.5 μM ATP) (IC50). In addition, on Nek2, 2800 nM corresponded to half-maximal inhibition (IC50).

`O=S(=O)(Cc1cccc(Nc2nc(OCC3CCCCC3)c3nc[nH]c3n2)c1)N1CCCCC1` [Compound 49, 1-(3-(6-Cyclohexylmethoxy-9H-purin-2-ylamino)phenylmethanesulfonyl)piperidine] gave an IC50 against CDK2 (12.5 μM ATP) of 1600 nM. Moreover, testing at 50 µM against Nek2 gave an inhibition of 53%.

`CN(C)CCCCNC(=O)c1cccc(Nc2nc(OCC3CCCCC3)c3nc[nH]c3n2)c1` [Compound 33, 3-(6-Cyclohexylmethoxy-9H-purin-2-ylamino)-N-(4-dimethylaminobutyl)benzamide]: the melting point lay in the range of 125 to 127 °C. Further, inhibition on CDK2 (12.5 μM ATP) was half-maximal at 730 nM (IC50). This compound came in with an IC50 against Nek2 of 3800 nM.

The compound `O=C(Cc1cccc(Nc2ncc3nc[nH]c3n2)c1)NCCCn1ccnc1` [Compound 67, N-(3-Imidazol-1-yl-propyl)-2-[3-(9H-purin-2-ylamino)phenyl]acetamide] had a melting point of 121 to 122 °C. The same compound yielded a concentration for half-maximal inhibition (IC50) against CDK2 (12.5 μM ATP) above 100000 nM. The compound also showed an IC50 on Nek2 of 5900 nM.

In turn, `CN(C)CCCNS(=O)(=O)Cc1cccc(Nc2nc(OCC3CCCCC3)c3nc[nH]c3n2)c1` [Compound 51, 1-[3-(6-Cyclohexylmethoxy-9H-purin-2-ylamino)phenyl]-N-(3-dimethylaminopropyl)methanesulfonamide] came in with a melting point of 167 to 168 °C. This compound also returned an IC50 at CDK2 (12.5 μM ATP) of 530 nM. For the same compound, on Nek2, the IC50 was 1420 nM.

On to `CC(=O)Nc1cccc(Nc2nc(OCC3CCCCC3)c3nc[nH]c3n2)c1` [Compound 27, N-(3-(6-(Cyclohexylmethoxy)-9H-purin-2-ylamino)phenyl)acetamide], for which the figures for the IC50 at CDK2 (12.5 μM ATP) and on Nek2 were 880 nM and 8300 nM, respectively.

`CN(C)C(=S)c1cccc(Nc2nc(OCC3CCCCC3)c3nc[nH]c3n2)c1` [Compound 12, 3-(6-Cyclohexylmethoxy-9H-purin-2-ylamino)-N,N-dimethylthiobenzamide]: the melting point was 231 to 232 °C (dec.). The midpoint of inhibition against CDK2 (12.5 μM ATP), the IC50, lay at 5700 nM. This compound also returned an IC50 at Nek2 of 5200 nM.

Consider `NS(=O)(=O)c1ccc(Nc2nc(OCC3CCCCC3)c3nc[nH]c3n2)cc1` [Compound 6], for which the 50% inhibitory concentration (IC50) against Nek2 was determined as 12000 nM.

Compound `CN(C)CCNC(=O)Cc1cccc(Nc2nc(OCC3CCCCC3)c3nc[nH]c3n2)c1` [Compound 43, 2-[3-(6-Cyclohexylmethoxy-9H-purin-2-ylamino)phenyl]-N-(2-dimethylaminoethyl)acetamide] had a melting point of 161 to 162 °C. This compound also yielded an IC50 at CDK2 (12.5 μM ATP) of 590 nM. Moreover, at Nek2, the concentration for half-maximal inhibition (IC50) stood at 1000 nM.

`CC(C)(C)C(=O)Nc1ccc(Nc2nc(OCC3CCCCC3)c3nc[nH]c3n2)cc1` [Compound 28, N-(4-(6-(Cyclohexylmethoxy)-9H-purin-2-ylamino)phenyl)pivalamide]: the results for the IC50 against CDK2 (12.5 μM ATP) and against Nek2 were 9700 nM and 24000 nM, respectively.

For `C(=C\N1CCCC1)/c1nc(Nc2ccccc2)nc2[nH]cnc12` [Compound 69, (E)-N-Phenyl-6-(2-(pyrrolidin-1-yl)vinyl)-9H-purin-2-amine], the melting point was 138 to 140 °C. The compound further gave an IC50 against CDK2 (12.5 μM ATP) of 5800 nM. Also, on Nek2, the IC50 stood at 340 nM.

With `CN(C)[C@@H]1CCN(/C=C/c2nc(Nc3ccccc3)nc3[nH]cnc23)C1` [Compound 73, (R, E)-6-(2-(3-(Dimethylamino)pyrrolidin-1-yl)vinyl)-N-phenyl-9H-purin-2-amine], the melting point is 136 to 138 °C. Also, the IC50 at CDK2 (12.5 μM ATP) came to 6900 nM. Inhibition on Nek2 was half-maximal at 3000 nM (IC50).

In turn, `NS(=O)(=O)Cc1cccc(Nc2nc(OCC3CCCCC3)c3nc[nH]c3n2)c1` [Compound 53, [3-(6-Cyclohexylmethoxy-9H-purin-2-ylamino)phenyl]methanesulfonamide] had a melting point of 134 to 135 °C. Moreover, inhibition on CDK2 (12.5 μM ATP) was half-maximal at 240 nM (IC50). At Nek2, this compound showed an inhibition at 50 µM of 81%.

`CN(C(=O)Cc1cccc(Nc2nc(OCC3CCCCC3)c3nc[nH]c3n2)c1)C1CCCCC1` [Compound 37] returned a melting point of 134 to 135 °C. The same compound gave an IC50 on CDK2 (12.5 μM ATP) of 1600 nM. The compound also came in with an inhibition at 50 µM at Nek2 of 26%.

Turning to `CN(C)S(=O)(=O)c1cccc(Nc2nc(OCC3CCCCC3)c3nc[nH]c3n2)c1` [Compound 14, 3-(6-Cyclohexylmethoxy-9H-purin-2-ylamino)-N,N-dimethylbenzenesulfonamide], the melting point fell in the range of 143 to 145 °C. Inhibition against CDK2 (12.5 μM ATP) was half-maximal at 3500 nM (IC50). For the same compound, the inhibition at 50 µM on Nek2 worked out at 40%.

Take `O=C(NCCN1CCCCC1)Nc1ccc(Nc2nc(OCC3CCCCC3)c3nc[nH]c3n2)cc1` [Compound 17, 1-(4-(6-(Cyclohexylmethoxy)-9H-purin-2-ylamino)phenyl)-3-(2-(piperidin-1-yl)ethyl)urea]: the figures for the IC50 on CDK2 (12.5 μM ATP) and against Nek2 were 860 nM and 1100 nM, respectively.

As for `CCOc1nc(Nc2cccc(CC(=O)NCCCN(C)C)c2)nc2[nH]cnc12` [Compound 59, N-(3-Dimethylaminopropyl)-2-[3-(6-ethoxy-9H-purin-2-ylamino)phenyl]acetamide], the melting point lay within 178 to 179 °C.

With `O=C(Nc1ccc(Nc2nc(OCC3CCCCC3)c3nc[nH]c3n2)cc1)c1ccccc1` [Compound 29, N-(4-(6-(Cyclohexylmethoxy)-9H-purin-2-ylamino)phenyl)benzamide], the IC50 on CDK2 (12.5 μM ATP) is 2900 nM. The same compound registered an inhibition at 50 µM at Nek2 of 36%.
